Data as given in ChEMBL document CHEMBL1131428, “Immunophilins: beyond immunosuppression” (J Med Chem, 1998).

Legend:
[1] = molecular target: Peptidyl-prolyl cis-trans isomerase FKBP1A (Homo sapiens, UniProt P62942); assay: Compound was tested for its ability to inhibit FK506 binding protein 12 rotamase activity
[2] = tested on: Mus musculus; assay: Compound was evaluated for the recovery of Striatal TH immunostaining in MPTP-treated mice by concurrent treatment after 40 mg/kg sc administration.; type: functional, organism-based; design: dose 40 mg/kg; conditions: at 40 mg/kg
[3] = species on record: Gallus gallus; assay: In Vitro neurotrophic effect was measured in cultured chick DRG sensory neurons.; type: functional; conditions: read-out: ED50 (the source's name)
[4] = tested on: Rattus norvegicus; assay: Mean axonal area to promote nerve regeneration in rats with lesioned sciatic nerves was measured after 2 mg/kg sc daily administration.; type: functional; conditions: route subcutaneous
[5] = tested on: Rattus norvegicus; assay: Axonal regeneration rate to promote nerve regeneration in rats with lesioned sciatic nerves was measured after 1 mg/kg sc daily administration.; type: functional; conditions: route subcutaneous
[6] = tested on: Rattus norvegicus; assay: Mean axonal area to promote nerve regeneration in rats with lesioned sciatic nerves was measured after 5 mg/kg sc daily administration.; type: functional; conditions: route subcutaneous
[7] = tested on: Rattus norvegicus; assay: Axonal regeneration rate to promote nerve regeneration in rats with lesioned sciatic nerves was measured after 5 mg/kg sc daily administration.; type: functional; conditions: route subcutaneous
[8] = tested on: Rattus norvegicus; assay: Mean axonal area to promote nerve regeneration in rats with lesioned sciatic nerves was measured after 10 mg/kg sc daily administration.; type: functional; conditions: route subcutaneous
[9] = tested on: Rattus norvegicus; assay: Mean axonal area to promote nerve regeneration in rats with lesioned sciatic nerves was measured after 1 mg/kg sc daily administration.; type: functional; conditions: route subcutaneous
[10] = tested on: Rattus norvegicus; assay: Axonal regeneration rate to promote nerve regeneration in rats with lesioned sciatic nerves was measured after 10 mg/kg sc daily administration.; type: functional; conditions: route subcutaneous
[11] = tested on: Mus musculus; assay: Compound was evaluated for the recovery of Striatal TH immunostaining in MPTP-treated mice by concurrent treatment after 4 mg/kg sc administration.; type: functional, organism-based; design: dose 4 mg/kg; conditions: at 4 mg/kg
[12] = species on record: Rattus norvegicus; assay: Compound was evaluated for the regrowth of Striatal dopamine neurons in 6HODA-lesioned rats at 7 days; type: functional, organism-based
[13] = species on record: Rattus norvegicus; assay: Compound was evaluated for the regrowth of Striatal dopamine neurons in 6HODA-lesioned rats at 28 days; type: functional, organism-based
[14] = species on record: Rattus norvegicus; assay: Compound was evaluated for the regrowth of Striatal dopamine neurons in 6HODA-lesioned rats at 1h.; type: functional, organism-based
[15] = species on record: Rattus norvegicus; assay: Compound was evaluated for the regrowth of Striatal dopamine neurons in 6HODA-lesioned rats at 60 days; type: functional, organism-based
[16] = species on record: Rattus norvegicus; assay: Compound was evaluated for the regrowth of Striatal dopamine neurons in 6HODA-lesioned rats at 120 days; type: functional, organism-based

Chain of Peptidyl-prolyl cis-trans isomerase FKBP1A (P62942 whole entry): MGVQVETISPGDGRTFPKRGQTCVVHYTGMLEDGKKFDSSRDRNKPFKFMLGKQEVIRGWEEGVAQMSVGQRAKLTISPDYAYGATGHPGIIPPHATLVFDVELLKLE

SMILES	Ki [1] [nM]	EC50 [3] [nM]	other results
COc1ccc(CCCCOC(=O)C2CCCCN2C(=O)C(=O)C(C)(C)C)cc1 (stereo not given)	24		Recovery [2]: 58.9%
C/C=C/C[C@@H](C)[C@@H](O)[C@H]1C(=O)N[C@@H](CC)C(=O)N(C)CC(=O)N(C)[C@@H](CC(C)C)C(=O)N[C@@H](C(C)C)C(=O)N(C)[C@@H](C)C(=O)N[C@@H](C)C(=O)N[C@H](C)C(=O)N(C)[C@@H](CC(C)C)C(=O)N(C)[C@@H](CC(C)C)C(=O)N(C)[C@@H](C(C)C)C(=O)N1C	50		
O=C(OC(CCCc1ccccc1)Cc1ccccc1)C1CCCCN1S(=O)(=O)Cc1ccccc1 (stereo not given)	107	0.133	
CC(C)(C)C(=O)C(=O)N1CCCC1C(=O)OCCCc1cccnc1 (stereo not given)	3		
COc1cc(C(=O)C(=O)N2CCCCC2C(=O)OC(CCCc2ccccc2)CCc2cccnc2)cc(OC)c1OC (stereo not given)		0.95	
CCC(C)(C)C(=O)C(=O)N1CCCCC1C(=O)OCCCc1ccccc1 (stereo not given)	250		
C=CC[C@@H]1/C=C(\C)CC(C)C[C@H](OC)[C@H]2O[C@@](O)(C(=O)C(=O)N3CCCC[C@H]3C(=O)O[C@H](/C(C)=C/[C@@H]3CC[C@@H](O)[C@H](OC)C3)[C@H](C)[C@@H](O)CC1=O)[C@H](C)C[C@@H]2OC (single isomer, unassigned) [TACROLIMUS ANHYDROUS]		0.5	Mean axonal area [4]: 83; Axonal regeneration rate [5]: 16; Mean axonal area [6]: 120; Axonal regeneration rate [7]: 34; Mean axonal area [8]: 100; Mean axonal area [9]: 67; Axonal regeneration rate [10]: 29
O=C(OCCCc1cccnc1)C1CCCN1C(=S)NC1CCCCC1 (stereo not given)	131	0.3	Recovery [11]: 56.1%
CC[C@@H]1/C=C(/C)[C@@H](O)[C@@H](C)C[C@H](OC)[C@H]2O[C@@](O)(C(=O)C(=O)N3CCCC[C@H]3C(=O)O[C@H](/C(C)=C/[C@@H]3CC[C@@H](O)[C@H](OC)C3)[C@H](C)[C@@H](O)CC1=O)[C@H](C)C[C@@H]2OC	0.7	5	
COc1cc(C(=O)C(=O)N2CCCCC2C(=O)OC(CCCc2ccccc2)CCCc2ccccn2)cc(OC)c1OC (stereo not given)		0.05	
CCOC(=O)C1CCCCN1C(=O)C(C)=O (stereo not given)	> 10000	> 10000	
O=C(C(=O)N1CCCCC1C(=O)OC(CCCc1ccccc1)CCCc1ccccc1)c1ccccc1 (stereo not given)	3		
CC(C)(C)C(=O)C(=O)N1CCCC1C(=O)OCCCc1ccccc1 (stereo not given)	95		
CC(C)(C)C(=O)C(=O)N1CCCCC1C(=O)OC1C2CC3CC(C2)CC1C3 (stereo not given)	78	0.11	
CCOC(=O)C1CCCCN1C(=O)C(=O)OC (stereo not given)	> 10000		
CCC(C)CNC(=O)N1CCCCC1C(=O)OCCCc1cccnc1 (stereo not given)	70	0.07	Recovery [11]: 27.5%
COc1cc(C(=O)C(=O)N2CCCCC2C(=O)OCCCc2c[nH]c3ccccc23)cc(OC)c1OC (stereo not given)		0.06	
O=C(OCCCc1cccnc1)C1CCCN1S(=O)(=O)Cc1ccccc1 (stereo not given)	72		Recovery [11]: 44.3%
Cc1ccc(S(=O)(=O)N2CCCCC2C(=O)OC(CCCc2ccccc2)CCCc2ccccc2)cc1 (stereo not given)	332	1	
CCC(C)(C)NC(=O)N1CCCC1C(=O)OCCCc1cccnc1 (stereo not given)	742	1	
CCC(C)(C)C(=O)C(=O)N1CCCC1C(=O)OCCCc1ccccc1 (stereo not given)	42		

SMILES	Ki [1] [nM]	EC50 [3] [nM]	other results
O=C(OCCCCc1ccccc1)C1CCCCN1S(=O)(=O)Cc1ccccc1 (stereo not given)		0.03	Recovery [11]: 38%
COC(=O)C(=O)N1CCCCC1C(=O)OCc1ccccc1 (stereo not given)	8000	> 10000	
O=C(OCCCCc1ccccc1)C1CCCCN1S(=O)(=O)c1ccccc1 (stereo not given)			Recovery [11]: 29.2%
O=C(C(=O)N1CCCCC1C(=O)OCCCc1cccnc1)c1ccccc1 (stereo not given)	725	0.8	
COC(=O)C1CCCCN1C(=O)C(=O)c1ccccc1 (stereo not given)	> 10000	> 10000	
CCC(C)(C)C(=O)C(=O)N1CCCC1C(=O)OCCCc1cccnc1 (stereo not given)	7.5	0.05	Recovery [12]: 25.5%; Recovery [13]: 28.1%; Recovery [2]: 67.5%; Recovery [14]: 34.2%; Recovery [15]: 17.3%; Recovery [16]: 19.5%
CCC(C)(C)C(=O)C(=O)N1CCCCC1C(=O)OCCC(c1ccccc1)c1ccccc1 (stereo not given)	8.3		
O=C(OCCCc1cccnc1)C1CCCN1C(=O)NC1CCCCC1 (stereo not given)	1480		Recovery [11]: 59.8%
CCC(C)(C)C(=O)C(=O)N1CCCC1C(=O)OC/C=C/c1cc(OC)ccc1OC (stereo not given)	450	0.8	
COc1ccc(CCCCOC(=O)C2CCCCN2C(=O)C(=O)c2cc(OC)c(OC)c(OC)c2)cc1 (stereo not given)		0.03	
CC(C)(C)C(=O)C(=O)N1CCCCC1C(=O)OCCCc1ccccc1 (stereo not given)			Recovery [2]: 32.4%
O=C(OCCCc1cccnc1)C1CCCN1C(=S)NC1C2CC3CC(C2)CC1C3 (stereo not given)	116	0.14	Recovery [11]: 52.3%
CCC(C)(C)C(=O)C(=O)N1CCCCC1C(=O)O[C@H](CCc1ccccc1)c1ccccc1 (stereo not given in full)		0.3	
CCC(C)(C)C(=O)C(=O)N1CCCCC1C(=O)OC(CCc1ccccc1)CCc1ccccc1 (stereo not given)			Recovery [2]: 71.6%
Cc1ccc(S(=O)(=O)N2CCCCC2C(=O)OCCCCc2ccccc2)cc1 (stereo not given)			Recovery [11]: 44.2%
O=C(C(=O)N1CCCCC1C(=O)OC(CCCc1ccccc1)CCCc1ccccn1)c1ccccc1 (stereo not given)	50	0.063	
CC(C)(C)C(=O)C(=O)N1CCCCC1C(=O)OC(CCCc1ccccc1)CCCc1ccccc1 (stereo not given)			Recovery [2]: 43.8%
CCC(OC(=O)C1CCCCN1C(=O)C(=O)C(C)(C)CC)C(CCc1ccccc1)c1ccc(OC)cc1 (stereo not given)	15	0.17	
CO[C@H]1C[C@@H]2CC[C@@H](C)[C@@](O)(O2)C(=O)C(=O)N2CCCC[C@H]2C(=O)O[C@H]([C@H](C)C[C@@H]2CC[C@@H](O)[C@H](OC)C2)CC(=O)[C@H](C)/C=C(\C)[C@@H](O)[C@@H](OC)C(=O)[C@H](C)C[C@H](C)/C=C/C=C/C=C/1C [SIROLIMUS]		0.5	
CCC(C)(C)C(=O)C(=O)N1CCCC1C(=O)OCCc1cc(OC)c(OC)c(OC)c1 (stereo not given)	120		

Further lines, with some results ahead:

Ki [1] [nM]	EC50 [3] [nM]	SMILES	other results
	1	CCC(C)(C)C(=O)C(=O)N1CCCCC1C(=O)OCCCC1CCCCC1 (stereo not given)	
170	10	CCC(C)(C)C(=O)C(=O)N1CCCC1C(=O)OCCCc1ccc2c(c1)OCO2 (stereo not given)	
	> 10000	COC(=O)C(=O)N1CCCCC1C(=O)OCCCC1CCCCC1 (stereo not given)	
12	2.5	CCC(C)(C)C(=O)C(=O)N1CCCCC1C(=O)OCCCc1cc(OC)ccc1OC (stereo not given)	
	> 10000	COC(=O)C(=O)N1CCCCC1C(=O)OCCCC1CCCC1 (stereo not given)	
250	2	CCC(C)(C)C(=O)C(=O)N1CCCC1C(=O)OCCCc1cc(OC)ccc1OC (stereo not given)	
195	0.075	CCC(C)(C)C(=O)C(=O)N1CCCC1C(=O)OCCCc1ccccn1 (stereo not given)	
60		CCC(C)(C)C(=O)C(=O)N1CCCCC1C(=O)OCCCCc1ccc(OC)cc1 (stereo not given)	
130	8.5	CCC(C)(C)C(=O)C(=O)N1CCCCC1C(=O)OCCCc1cccnc1 (stereo not given)	
25		CCC(C)(C)C(=O)C(=O)N1CCCCC1C(=O)OCCCc1cc(OC)c(OC)c(OC)c1 (stereo not given)	
1300		CCOC(=O)C1CCCCN1C(=O)C(=O)C(C)(C)CC (stereo not given)	
	2	O=C(C(=O)N1CCCC1C(=O)OCCCc1cccnc1)C1CCCCC1 (stereo not given)	
210	0.82	O=C(C(=O)N1CCCCC1C(=O)OCCCc1ccccc1)C1CCCCC1 (stereo not given)	
760	1	O=C(C(=O)N1CCCCC1C(=O)OCCCC1CCCCC1)C1CCCCC1 (stereo not given)	
103	6	COc1ccc(CCCCOC(=O)C2CCCCN2C(=O)C(=O)C2CCCCC2)cc1 (stereo not given)	
194	0.257	CCC(C)(C)C(=O)C(=O)N1CCCC1C(=O)OCCCC1CCCCC1 (stereo not given)	
32	0.29	CC(C)(C)C(=O)C(=O)N1CCCCC1C(=O)OCCCC1CCCCC1 (stereo not given)	
	> 10000	COC(=O)C(=O)N1CCCCC1C(=O)OCCCCC1CCCCC1 (stereo not given)	
